{"source": "patent US6274627A", "about": "“Conjugates of dithiocarbamate disulfides with pharmacologically active agents and uses therefor” (Medinox, Inc., priority 1999, dated 2001)", "key": {"esterase": {"test_system": "esterase", "test": "Enzymatic hydrolysis of PDD-NSAIDs by esterase", "type": "in vitro ADME", "conditions": "for time within which the compound was decomposed into two compounds: esterase, PBS buffer, as described for compound 12", "procedure": "The resulting solution was put in a water bath (37° C.) for 30 min and then at room temperature overnight."}, "cancer patients": {"test_system": "cancer patients", "conditions": "cancer patients receiving adriamycin chemotherapy; cited from earlier work"}, "[1]": {"conditions": "iron-ICRF-187 complex, Fenton reaction; cited from earlier work"}, "[2]": {"test_system": "male Sprague-Dawley rats (stomach, gastric lesions)", "test": "Gastric erosions in the rat gastropathy model", "type": "in vivo", "conditions": "oral; for length of the lesions (most of the lesions): corpus of the stomach; for number of gastric lesions, dose dependence: naproxen 15 and 30 mg/kg, PDD-Naproxen 27 & 54 mg/kg (equimolar)"}, "[3]": {"test_system": "Lewis male rats (M. tuberculosis adjuvant-induced arthritis)", "test": "Chronic inflammation: rat adjuvant arthritis model", "type": "in vivo", "conditions": "for reduction of swelling compared to control by day 15: oral high doses: naproxen 10 mg/kg, days 5-8 and 11-14", "procedure": "Thus, paw volume increases (measured with a Plethysmometer) are reported as a function of time, and were measured in the injected feet of Lewis male rats in which arthritis was induced by intradermel injection of adjuvant into the footpad.\nNSAIDs are useful in both chronic and acute inflammatory conditions. Efficacy in chronic inflammation can be estimated using the rat adjuvant arthritis model (Blackham et al. supra). In this model Lewis male rats (175-250 g) were injected intradermally in the footpad with M. tuberculosis powder suspended in mineral oil at 5 mg/ml. Progressive swelling of the uninjected paw and ankle joint between days 11 and 15 was measured by plethysmometry."}, "[4]": {"test_system": "male Sprague-Dawley rats (carrageenan-injected paw)", "test": "Acute inflammation: rat carrageenan-induced hindlimb edema model", "type": "in vivo", "procedure": "Efficacy of NSAIDs in acute inflammation can be estimated by using intraplantar injection of carrageenan in the rat. Male Sprague-Dawley rats (200-250 g) were injected intradermally in the footpad with 50 μl of a 1% carrageenan solution in PBS. Swelling of the injected paw was measured at 2, 3, 5 & 7 hours using a plethysmometer."}, "[5]": {"test": "Plasma pharmacokinetics of naproxen following oral administration of PDD-Naproxen or naproxen in rats"}, "[6]": {"test_system": "gastrointestinal toxicity", "conditions": "in vivo; cited from earlier work"}, "COX-2": {"test_system": "COX-2", "conditions": "cited from earlier work"}, "nuclear factor kappa B": {"test_system": "nuclear factor kappa B", "conditions": "intact cells; cited from earlier work"}, "[7]": {"conditions": "PDD-Naproxen (NOX-319) 18 mg/kg"}}, "note": "Entries after “also recorded” stand apart in the source; their conditions may differ.", "data": [{"smiles": "CC(C)Cc1ccc(C(C)C(=O)OCCCOC(=O)[C@@H]2CCCN2C(=S)SSC(=S)N2CCC[C@H]2C(=O)OCCCOC(=O)C(C)c2ccc(CC(C)C)cc2)cc1", "note": "(stereo partly shown) [Compound 16]", "values": [{"measurement": "time within which the compound was decomposed into two compounds", "setting": "esterase", "value": "≤ 5", "unit": "h"}]}, {"smiles": "CC(C(=O)OCCCOC(=O)[C@@H]1CCCN1C(=S)SSC(=S)N1CCC[C@H]1C(=O)OCCCOC(=O)C(C)c1cccc(C(=O)c2ccccc2)c1)c1cccc(C(=O)c2ccccc2)c1", "note": "(stereo partly shown) [Compound 20]", "values": [{"measurement": "time within which the compound was decomposed into two compounds", "setting": "esterase", "value": "≤ 5", "unit": "h"}]}, {"smiles": "COc1ccc2c(c1)c(CC(=O)OCCCOC(=O)[C@@H]1CCCN1C(=S)SSC(=S)N1CCC[C@H]1C(=O)OCCCOC(=O)Cc1c(C)n(C(=O)c3ccc(Cl)cc3)c3ccc(OC)cc13)c(C)n2C(=O)c1ccc(Cl)cc1", "note": "[Compound 24]", "values": [{"measurement": "time within which the compound was decomposed into two compounds", "setting": "esterase", "value": "≤ 5", "unit": "h"}]}, {"smiles": "C[C@@H](CN1CC(=O)NC(=O)C1)N1CC(=O)NC(=O)C1", "note": "[ICRF-187]", "values": [{"measurement": "removal of iron from the anthracycline-iron complex, preventing cardiac toxicity", "setting": "cancer patients", "value": "effective for the removal of iron from the anthracycline-iron complex, therefore preventing the cardiac toxicity"}, {"measurement": "promotion of hydroxyl radical generation", "setting": "[1]", "value": "very effective at promoting hydroxyl radical generation"}]}, {"smiles": "COc1ccc2cc([C@H](C)C(=O)O)ccc2c1", "note": "[Naproxen, (S)-(+)-methoxy-α-methyl-2-naphthaleneacetic acid, reference compound]", "values": [{"measurement": "length of the lesions (most of the lesions)", "setting": "[2]", "value": "less than 2 mm"}, {"measurement": "number of gastric lesions, dose dependence", "setting": "[2]; 3 h", "value": "dose-related number of lesions"}, {"measurement": "reduction of swelling compared to control by day 15", "setting": "[3]; [7]", "value": "approximately 70%"}]}, {"smiles": "COc1ccc2cc(C(C)C(=O)OCCCOC(=O)C3CCCN3C(=S)SSC(=S)N3CCCC3C(=O)OCCCOC(=O)C(C)c3ccc4cc(OC)ccc4c3)ccc2c1", "note": "(stereo not shown) [PDD-Naproxen]", "values": [{"measurement": "decomposition by esterase", "setting": "esterase; 33.3 units esterase in PBS buffer, 37° C. for 30 min, then room temperature overnight", "value": "decomposed into two compounds"}, {"measurement": "gastric safety / tendency to cause gastric erosions, overall", "setting": "[2]; relative to naproxen", "value": "has the ability to reduce the number of erosions in the corpus of the stomach; also recorded: tendency to cause gastric erosions is reduced; also recorded: improved gastric safety"}, {"measurement": "number of gastric erosions, low dose", "setting": "[2]; PDD-Naproxen 27 mg/kg vs naproxen 15 mg/kg, 6 animals in each group", "value": "fewer erosions than the low dose of naproxen, but statistical significance was not achieved"}, {"measurement": "number of gastric lesions, high dose", "setting": "[2]; PDD-Naproxen 54 mg/kg vs naproxen 30 mg/kg, 3 h", "value": "significantly fewer lesions than the high dose naproxen group (ANOVA; p<0.005)"}, {"measurement": "length of the lesions (most of the lesions)", "setting": "[2]", "value": "less than 2 mm"}, {"measurement": "number of gastric lesions, dose dependence", "setting": "[2]; 3 h", "value": "dose-related number of lesions"}, {"measurement": "reduction in paw swelling", "setting": "[4]; oral 1 h before carrageenan, naproxen 10 mg/kg or PDD-Naproxen 18 mg/kg (equimolar)", "value": "reduced inflammation significantly at 2 and 3 hours, but started to wear off by 5 hours"}, {"measurement": "acute antiinflammatory activity, overall", "setting": "[4]; oral, carrageenan model", "value": "orally active in rats, but slightly less effective vs acute inflammation than the parent drug; also recorded: antiinflammatory activity similar to naproxen; also recorded: alleviation of acute inflammation"}, {"measurement": "reduction of swelling compared to control by day 15", "setting": "[3]; [7]", "value": "approximately 70%"}, {"measurement": "chronic antiinflammatory effect, overall", "setting": "[3]; oral, equimolar doses, vs naproxen", "value": "antiinflammatory activity similar to naproxen; also recorded: antiinflammatory effects equal to those of naproxen; also recorded: effectiveness of PDD-Naproxen in the treatment of adjuvant-induced arthritis"}, {"measurement": "effect on swelling by day 15, lower doses", "setting": "[3]; oral, naproxen 1 mg/kg, PDD-Naproxen (NOX-319) 1.8 mg/kg", "value": "slight effect by day 15"}, {"measurement": "reduction of swelling on days 13 through 15, high doses", "setting": "[3]; oral, naproxen 10 mg/kg, PDD-Naproxen (NOX-319) 18 mg/kg", "value": "comparable reduction of swelling"}, {"measurement": "naproxen pharmacokinetic profile, overall", "setting": "[5]; oral or IV, vs naproxen itself", "value": "better naproxen pharmacokinetic profiles than naproxen itself"}, {"measurement": "AUCinf comparison, oral", "setting": "[5]; oral, PDD-Naproxen vs naproxen", "value": "no significant difference"}]}, {"smiles": "COc1ccc2cc(CCC(C)=O)ccc2c1", "note": "[nabumetone]", "values": [{"measurement": "gastrointestinal toxicity relative to other NSAIDs on the market", "setting": "[6]", "value": "reduced gastrointestinal toxicity"}, {"measurement": "selectivity for COX-2", "setting": "COX-2", "value": "marked selectivity for COX-2"}]}, {"smiles": "S=C(S)N1CCCC1", "note": "[pyrrolidine dithiocarbamate]", "values": [{"measurement": "inhibition of nuclear factor kappa B", "setting": "nuclear factor kappa B", "value": "potent inhibitors of nuclear factor kappa B"}]}]}
